Data published in patent publication US20240398737A1, “FUNCTIONALIZED LONG-CHAIN HYDROCARBON MONO- AND DI-CARBOXYLIC ACIDS AND DERIVATIVES THEREOF, AND THEIR USE FOR THE PREVENTION OR TREATMENT OF DISEASE” (Espervita Therapeutics, Inc., priority 2021, published 2024).

Legend:
[1] = test system: bone marrow derived macrophages (BMDMs); assay: LPS-induced glycolysis in bone marrow derived macrophages (Seahorse); type: cell-based, mouse; conditions: LPS + Compound I-1 50 μM, 4 hours
Method: (§1) Example 10: Treatment of bone marrow derived macrophages Mϕ (BMDMs) with Compound I-1 suppresses lipopolysaccharide (LPS)-induced glycolysis and inflammation. Macrophage were isolated as follows: femurs and tibia were collected from mice, cleaned of any soft tissues and the ends were cut off from each bone. The tibia and femur were then transferred into 1.5 mL Eppendorf tubes and the marrow was extracted via centrifugation (1900 g×5 min), resuspended in DMEM and strained through a 40 μm strainer into a 50 ml falcon tube. The strainer was rinsed with an additional 40 mL of DMEM, the cell suspension was transferred to a T175 flask, an additional 60 mL of DMEM was added and the cells were cultured at 37° C. for 4 hours. Differentiation was initiated by adding 20 mL of L929 fibroblast conditioned media and 12 mL was plated on 100 mm dishes. The cells were then left for 7 days to differentiate into macrophages. […] Changes in gene expression were calculated using 2-delta cT method. Macrophage glycolytic rates were assessed using a Seahorse Bioanalyzer (XFe96, Agilent Scientific Instruments). […] The following day cells were serum-starved for 2 hours then treated with LPS (100 ng/mL) and Compound I-1 (50 μM) and glycolytic rate was analyzed (Agilent Seahorse XFp Cell Energy Phenotype Test Kit, Cat #103275-100).

[2] = test system: bone marrow derived macrophages (BMDMs); assay: LPS-induced Il-6 and Il-1b mRNA in BMDMs (RT-qPCR); type: cell-based, mouse; conditions: LPS 10 ng/mL + Compound I-1 50 μM, 4 hours
Method: as §1

CC(C)(CCCCc1ccc(CCCCC(C)(C)C(=O)O)cc1)C(=O)O [Compound I-1, 6-[4-(5-carboxy-5-methylhexyl)-phenyl]-2,2-dimethylhexanoic acid]
suppression: LPS-induced glycolysis (glycolytic rate, Seahorse) [1] | Il-1b mRNA (marker of inflammation) [2] | Il-6 mRNA (marker of inflammation) [2]
